Experimental data from patent publication US12679878B2, “CRF2 receptor agonists and their use in therapy” (SANOFI, priority 2020, dated 2026).
Starred links: 1 amine or outer side, 2 acyl side, 3 side chain; linkers in the order of their positions; H or OH if unused. Non-standard residues stand in square brackets, D forms with d. Residues, ends and D or L forms follow the SMILES beside them. Groups on a side chain read outwards from the residue. *: point of attachment. C16 diacid = O=C(O)CCCCCCCCCCCCCCC(=O)*; γGlu = O=C(O)[C@H](CCC(=O)[*:2])N[*:1]; Palmitoyl = CCCCCCCCCCCCCCCC(=O)*; Aib = CC(C)(N)C(=O)O

Legend:
human CRF2α receptor = molecular target: T1, human CRF2α receptor (Homo sapiens, UniProt Q13324); assay: cAMP agonism at human CRF2α receptor in TeloHEAC cells, FA modified peptides (Example 19.9); assay type: cell-based; details: 0% HSA, relative to urocortin 2
T1 construct: expressed in transfected cells; host or cells: TeloHEAC
T1 sequence (Q13324 1-411): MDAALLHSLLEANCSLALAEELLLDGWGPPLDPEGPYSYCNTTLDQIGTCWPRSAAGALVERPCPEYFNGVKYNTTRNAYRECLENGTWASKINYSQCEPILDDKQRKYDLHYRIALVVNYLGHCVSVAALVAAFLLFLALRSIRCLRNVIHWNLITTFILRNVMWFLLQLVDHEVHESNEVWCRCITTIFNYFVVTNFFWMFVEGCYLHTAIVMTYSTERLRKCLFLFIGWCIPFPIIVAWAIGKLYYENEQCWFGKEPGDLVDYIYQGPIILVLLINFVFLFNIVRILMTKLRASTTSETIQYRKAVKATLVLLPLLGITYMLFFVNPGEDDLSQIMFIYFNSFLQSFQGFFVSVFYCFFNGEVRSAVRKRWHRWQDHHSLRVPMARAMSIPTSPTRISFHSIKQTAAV
Procedure, shortened: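 Efficacy and EC50 are referenced to 100 nM urocortin 2 as 100%, with cAMP measured as the 665/620 nm HTRF ratio after 1 h at room temperature. Compounds (0.5 mM DMSO stock, 16 twofold dilutions) acted 30 min at 37 °C on CRF2α-expressing TeloHEAC cells, buffer containing IBMX and 0% or 0.2% HSA.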

CRF1R receptor = molecular target: T2, CRF1R receptor (Homo sapiens, UniProt P34998); assay: cAMP activity at anti-target CRF1R, CHO-K1 cell line clone 2 (Example 19.10); assay type: cell-based; details: for CRF1/CRF2 ratio: ratio of CRF1 EC50 to CRF2 EC50
T2 construct: host or cells: CHO-K1 clone 2
T2 sequence (P34998 24-415): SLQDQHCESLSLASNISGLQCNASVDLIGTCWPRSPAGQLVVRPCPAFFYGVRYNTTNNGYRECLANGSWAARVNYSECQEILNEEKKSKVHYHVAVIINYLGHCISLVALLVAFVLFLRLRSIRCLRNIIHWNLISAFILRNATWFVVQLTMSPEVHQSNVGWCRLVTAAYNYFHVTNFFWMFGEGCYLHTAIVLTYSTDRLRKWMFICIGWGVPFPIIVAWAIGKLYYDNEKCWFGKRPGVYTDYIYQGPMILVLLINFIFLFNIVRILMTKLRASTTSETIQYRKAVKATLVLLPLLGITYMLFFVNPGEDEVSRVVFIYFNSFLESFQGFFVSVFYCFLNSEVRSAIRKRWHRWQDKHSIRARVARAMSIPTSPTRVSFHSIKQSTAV
Procedure, shortened: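 The cAMP read-out used the same protocol as the previous assay, except that Sauvagine at 100 nM set the 100% activation control. Cells were CHO-K1 clone 2 overexpressing CRF1R, cultured in F12 medium with 10% FBS and G418 and stored frozen until use.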

EC50 (human CRF2α receptor) | CRF1/CRF2 ratio (CRF1R receptor) | EC50 (CRF1R receptor; 0% HSA, CRF1R CHO-K1 clone 2, read-out: EC50 [nM] 0% HSA) | Emax (CRF1R receptor; 100% = Sauvagine at 100 nM, CRF1R CHO-K1 clone 2) | Compound
1.58 nM | 4 | – | – | CCCCCCCCCCCCCCCC(=O)N[C@@H](CCC(=O)NCCCC[C@H](NC(=O)[C@H](CC(C)C)NC(=O)CNC(=O)[C@@H](NC(=O)[C@@H]1CCCN1C(=O)[C@H](NC(=O)[C@H](CC(=O)O)NC(=O)[C@H](CC(C)C)NC(=O)[C@H](CO)NC(=O)[C@H](CC(C)C)NC(=O)[C@@H](NC(=O)[C@@H](N)[C@@H](C)CC)C(C)C)C(C)C)[C@@H](C)CC)C(=O)N[C@@H](CCC(N)=O)C(=O)N[C@H](C(=O)N[C@@H](CC(C)C)C(=O)N[C@@H](CC(C)C)C(=O)N[C@@H](CCCCN)C(=O)N[C@@H](CCC(N)=O)C(=O)N[C@@H](CCC(=O)O)C(=O)N[C@@H](CCCNC(=N)N)C(=O)N[C@@H](CCC(N)=O)C(=O)N[C@@H](CCCCN)C(=O)N[C@@H](CCCCN)C(=O)NC(C)(C)C(=O)N[C@@H](CCCNC(=N)N)C(=O)N[C@@H](CCC(=O)O)C(=O)N[C@@H](CCC(N)=O)C(=O)N[C@@H](C)C(=O)N[C@@H](CCC(=O)O)C(=O)N[C@@H](CCCCN)C(=O)N[C@@H](CC(N)=O)C(=O)N[C@@H](CCCCN)C(=O)N[C@@H](CCCNC(=N)N)C(=O)N[C@H](C(=O)N[C@@H](CC(C)C)C(=O)N[C@@H](CCC(=O)O)C(=O)N[C@@H](CCCNC(=N)N)C(=O)N[C@H](C(N)=O)C(C)C)[C@@H](C)CC)[C@@H](C)CC)C(=O)O [compound 218] (H-IVLSLD[dV]PIGLK([γGlu-Palmitoyl])QILLKQERQKK[Aib]REQAEKNKRILERV-NH2)
5.98 nM | 2 | – | – | CCCCCCCCCCCCCCCC(=O)N[C@@H](CCC(=O)NCCCC[C@H](NC(=O)[C@H](CC(C)C)NC(=O)[C@H](CCCCN)NC(=O)[C@@H](NC(=O)[C@@H]1CCCN1C(=O)[C@H](NC(=O)[C@H](CC(=O)O)NC(=O)[C@H](CC(C)C)NC(=O)[C@H](CO)NC(=O)[C@H](CC(C)C)NC(=O)[C@@H](NC(=O)[C@@H](N)[C@@H](C)CC)C(C)C)C(C)C)[C@@H](C)CC)C(=O)N[C@@H](CCC(N)=O)C(=O)N[C@H](C(=O)N[C@@H](CC(C)C)C(=O)N[C@@H](CC(C)C)C(=O)N[C@@H](CCCCN)C(=O)N[C@@H](CCC(N)=O)C(=O)N[C@@H](C)C(=O)N[C@@H](CCCNC(=N)N)C(=O)N[C@@H](CCC(N)=O)C(=O)N[C@@H](CCCCN)C(=O)NC(C)(C)C(=O)N[C@@H](CCC(N)=O)C(=O)N[C@@H](CCCNC(=N)N)C(=O)N[C@@H](C)C(=O)N[C@@H](CCC(N)=O)C(=O)N[C@@H](C)C(=O)N[C@@H](CCC(=O)O)C(=O)N[C@@H](CCCCN)C(=O)N[C@@H](CC(N)=O)C(=O)N[C@@H](CCCCN)C(=O)N[C@@H](CCCNC(=N)N)C(=O)N[C@H](C(=O)N[C@@H](CC(C)C)C(=O)N[C@@H](CCC(=O)O)C(=O)N[C@@H](CCCNC(=N)N)C(=O)N[C@H](C(N)=O)C(C)C)[C@@H](C)CC)[C@@H](C)CC)C(=O)O [compound 219] (H-IVLSLD[dV]PIKLK([γGlu-Palmitoyl])QILLKQARQK[Aib]QRAQAEKNKRILERV-NH2)
1.48 nM | 6 | – | – | CCCCCCCCCCCCCCCC(=O)N[C@@H](CCC(=O)NCCCC[C@H](NC(=O)[C@H](CC(C)C)NC(=O)CNC(=O)[C@@H](NC(=O)[C@@H]1CCCN1C(=O)[C@H](NC(=O)[C@H](CC(=O)O)NC(=O)[C@H](CC(C)C)NC(=O)[C@H](CO)NC(=O)[C@H](CC(C)C)NC(=O)[C@@H](NC(=O)[C@@H](N)[C@@H](C)CC)C(C)C)C(C)C)[C@@H](C)CC)C(=O)N[C@@H](CCC(N)=O)C(=O)N[C@H](C(=O)N[C@@H](CC(C)C)C(=O)N[C@@H](CC(C)C)C(=O)N[C@@H](CCCCN)C(=O)N[C@@H](CCC(N)=O)C(=O)N[C@@H](CCC(=O)O)C(=O)N[C@@H](CCCNC(=N)N)C(=O)N[C@@H](CCC(N)=O)C(=O)N[C@@H](CCCCN)C(=O)N[C@@H](CCCCN)C(=O)NC(C)(C)C(=O)N[C@@H](CCCNC(=N)N)C(=O)N[C@@H](CCC(N)=O)C(=O)N[C@@H](CCC(N)=O)C(=O)N[C@@H](C)C(=O)N[C@@H](CCC(=O)O)C(=O)N[C@H](C(=O)N[C@@H](CC(N)=O)C(=O)N[C@@H](CCCCN)C(=O)N[C@@H](CCCNC(=N)N)C(=O)N[C@H](C(=O)N[C@@H](CC(C)C)C(=O)N[C@@H](CCC(=O)O)C(=O)N[C@@H](CCCNC(=N)N)C(=O)N[C@H](C(N)=O)C(C)C)[C@@H](C)CC)[C@@H](C)O)[C@@H](C)CC)C(=O)O [compound 220] (H-IVLSLD[dV]PIGLK([γGlu-Palmitoyl])QILLKQERQKK[Aib]RQQAETNKRILERV-NH2; N-terminus assumed)
2.71 nM | – | > 100 nM | 3.2% | CC[C@H](C)[C@H](N)C(=O)N[C@H](C(=O)N[C@@H](CC(C)C)C(=O)N[C@@H](CO)C(=O)N[C@@H](CC(C)C)C(=O)N[C@@H](CC(=O)O)C(=O)N[C@@H](C(=O)N1CCC[C@H]1C(=O)N[C@H](C(=O)N[C@@H](CCCCN)C(=O)N[C@@H](CC(C)C)C(=O)N[C@@H](CCCCNC(=O)CC[C@H](NC(=O)CCCCCCCCCCCCCCC(=O)O)C(=O)O)C(=O)N[C@@H](CCC(N)=O)C(=O)N[C@@H](CCCCN)C(=O)N[C@@H](CC(C)C)C(=O)N[C@@H](CC(C)C)C(=O)N[C@@H](CCCCN)C(=O)N[C@@H](CCC(N)=O)C(=O)N[C@@H](CCC(=O)O)C(=O)N[C@@H](CCCNC(=N)N)C(=O)N[C@@H](CCC(N)=O)C(=O)N[C@@H](CCCNC(=N)N)C(=O)N[C@@H](CCCCN)C(=O)N[C@@H](CCC(=O)O)C(=O)N[C@@H](CCCNC(=N)N)C(=O)N[C@@H](CCC(=O)O)C(=O)N[C@@H](CCC(N)=O)C(=O)N[C@@H](C)C(=O)N[C@@H](CCC(=O)O)C(=O)N[C@@H](CCCCN)C(=O)N[C@@H](CC(N)=O)C(=O)N[C@@H](C)C(=O)N[C@@H](CCCNC(=N)N)C(=O)N[C@H](C(=O)N[C@@H](CC(C)C)C(=O)N[C@@H](C)C(=O)N[C@@H](CCCNC(=N)N)C(=O)N[C@H](C(N)=O)C(C)C)[C@@H](C)CC)[C@@H](C)O)C(C)C)C(C)C [compound 221] (H-IVLSLD[dV]PTKLK([γGlu-C16 diacid])QKLLKQERQRKEREQAEKNARILARV-NH2; N-terminus assumed)
